Results reported in ChEMBL document CHEMBL1144246, “Design, synthesis and structure-activity relationship of simple bis-amides as potent inhibitors of GlyT1” (Bioorg Med Chem Lett, 2008).
Values after ≈ are worked out from the molar mass of the structure shown.

Columns and labels:
[1] = Metabolic stability in human liver microsomes assessed as intrinsic clearance per mg protein; format: ADME, Microsome
[2] = Metabolic stability in mouse liver microsomes assessed as intrinsic clearance per mg protein; format: ADME, Microsome
[3] = Aqueous solubility in phosphate buffer at pH 6.5 by lyophilisation solubility assay; format: physicochemical

microsomal CLint [1]	microsomal CLint [2]	solubility [3]	Structure (SMILES)
887 µL/min/mg	926 µL/min/mg	< 1 µg/mL	O=C(CCc1ccccc1)NCC(=O)NC(c1ccccc1)c1ccc(Cl)cc1 (centres undefined)
–	19.3 µL/min/mg	< 1 µg/mL	O=C(CNC(=O)c1ccc(F)cc1)NC(c1ccccc1)c1cccc(C(F)(F)F)c1 (centres undefined)
–	8.6 µL/min/mg	7 µg/mL (≈ 17.3 µM)	N#Cc1ccc(C(=O)NCC(=O)NC(c2ccccc2)c2ccc(Cl)cc2)cc1 (centres undefined)
9.7 µL/min/mg	–	< 1 µg/mL	O=C(CNC(=O)c1ccc(F)cc1)NC(c1cccc(F)c1)c1cccc(F)c1
